According to patent US6316500A, “Aliphatically unsaturated hydroxy benzoates and preservative compositions thereof” (ISP Investments Inc., priority 1999, dated 2001):

How the values were obtained:
[1] = system: A. niger 16404; assay: Activity test: preservative challenge test in emulsion, A. niger 16404; format: cell-based; settings: for number of colonies per milliliter, 28 days: reinoculated at 21 days
Procedure: (§1) The emulsion was prepared by separately mixing components in phase A and phase B at 75-80° C. for 15 minutes. The phases were then combined and mixed for another 10 minutes and cooled to 45° C. with stirring. Preservative was then added followed by citric acid to adjust pH to from abut 6.5 to 7.5. Stirring of the resulting mixture was continued until a temperature of 30° C. was reached. The activity tests were carried out using the following microorganisms: A. niger, B. cepacia, C. albicans, E. coli, P. aeruginosa and S. aureus. 50 g aliquots of the test emulsion containing various amounts of the preservative admixture as reported in Tables I-V were inoculated with approximately 10^7 -10^8 of the test organisms. The test samples then were stirred to disperse the challenge inoculum. The samples were incubated and assayed at 48 hours, 7, 14, 21 and 28 days. The assays were performed on 1 g, of the test sample by serially diluting 10^3 to 10^6 of the original concentration. The plating medium for bacteria was Letheen agar and for fungi it was low pH Mycophil agar with Tween 20. Each plated sample was incubated for 48 hours at 37° C. for bacteria, 5 days at 25° C. for mold and 3 days at 25° C. for fungi. After incubation, readings of the number of colonies per milliliter (cfu/ml) were made results were determined, as reported in associated Tables IA-VA. At 21 days the test product was reinoculated with half of the original inoculum.

[2] = system: P. aeruginosa 9027; assay: Activity test: preservative challenge test in emulsion, P. aeruginosa 9027; format: cell-based; settings: for number of colonies per milliliter, 28 days: reinoculated at 21 days
Procedure: as §1

[3] = system: S. aureus 6538; assay: Activity test: preservative challenge test in emulsion, S. aureus 6538; format: cell-based; settings: for number of colonies per milliliter, 28 days: reinoculated at 21 days
Procedure: as §1

[4] = system: C. albicans 10231; assay: Activity test: preservative challenge test in emulsion, C. albicans 10231; format: cell-based; settings: for number of colonies per milliliter, 28 days: reinoculated at 21 days
Procedure: as §1

[5] = system: E. coli 8739; assay: Activity test: preservative challenge test in emulsion, E. coli 8739; format: cell-based; settings: for number of colonies per milliliter, 28 days: reinoculated at 21 days
Procedure: as §1

[6] = system: B. cepacia 25416; assay: Activity test: preservative challenge test in emulsion, B. cepacia 25416; format: cell-based; settings: for number of colonies per milliliter, 28 days: reinoculated at 21 days
Procedure: as §1

[7] = about 10 ppm, beer preservative; cited from earlier work

Structure (SMILES): C#CCOC(=O)c1ccc(O)cc1O [Propargyl 2,4-Dihydroxybenzoate]
- number of colonies per milliliter, 48 hr ([1]; 0.2% preservative in emulsion): 3500 cfu/ml
- number of colonies per milliliter, 7 days ([1]; 0.2% preservative in emulsion): < 10 cfu/ml
- number of colonies per milliliter, 14 days ([1]; 0.2% preservative in emulsion): < 10 cfu/ml
- number of colonies per milliliter, 21 days ([1]; 0.2% preservative in emulsion): < 10 cfu/ml
- number of colonies per milliliter, 28 days ([1]; 0.2% preservative in emulsion): < 10 cfu/ml
- number of colonies per milliliter, 48 hr ([2]; 0.2% preservative in emulsion): < 10 cfu/ml
- number of colonies per milliliter, 7 days ([2]; 0.2% preservative in emulsion): < 10 cfu/ml
- number of colonies per milliliter, 14 days ([2]; 0.2% preservative in emulsion): < 10 cfu/ml
- number of colonies per milliliter, 21 days ([2]; 0.2% preservative in emulsion): < 10 cfu/ml
- number of colonies per milliliter, 28 days ([2]; 0.2% preservative in emulsion): < 10 cfu/ml
- number of colonies per milliliter, 48 hr ([3]; 0.2% preservative in emulsion): < 10 cfu/ml
- number of colonies per milliliter, 7 days ([3]; 0.2% preservative in emulsion): < 10 cfu/ml
- number of colonies per milliliter, 14 days ([3]; 0.2% preservative in emulsion): < 10 cfu/ml
- number of colonies per milliliter, 21 days ([3]; 0.2% preservative in emulsion): < 10 cfu/ml
- number of colonies per milliliter, 28 days ([3]; 0.2% preservative in emulsion): < 10 cfu/ml
- number of colonies per milliliter, 48 hr ([4]; 0.2% preservative in emulsion): 540 cfu/ml
- number of colonies per milliliter, 7 days ([4]; 0.2% preservative in emulsion): < 10 cfu/ml
- number of colonies per milliliter, 14 days ([4]; 0.2% preservative in emulsion): < 10 cfu/ml
- number of colonies per milliliter, 21 days ([4]; 0.2% preservative in emulsion): < 10 cfu/ml
- number of colonies per milliliter, 28 days ([4]; 0.2% preservative in emulsion): < 10 cfu/ml
- number of colonies per milliliter, 48 hr ([5]; 0.2% preservative in emulsion): < 10 cfu/ml
- number of colonies per milliliter, 7 days ([5]; 0.2% preservative in emulsion): < 10 cfu/ml
- number of colonies per milliliter, 14 days ([5]; 0.2% preservative in emulsion): < 10 cfu/ml
- number of colonies per milliliter, 21 days ([5]; 0.2% preservative in emulsion): < 10 cfu/ml
- number of colonies per milliliter, 28 days ([5]; 0.2% preservative in emulsion): < 10 cfu/ml
- number of colonies per milliliter, 48 hr ([6]; 0.2% preservative in emulsion): < 10 cfu/ml
- number of colonies per milliliter, 7 days ([6]; 0.2% preservative in emulsion): < 10 cfu/ml
- number of colonies per milliliter, 14 days ([6]; 0.2% preservative in emulsion): < 10 cfu/ml
- number of colonies per milliliter, 21 days ([6]; 0.2% preservative in emulsion): < 10 cfu/ml
- number of colonies per milliliter, 28 days ([6]; 0.2% preservative in emulsion): < 10 cfu/ml

Structure (SMILES): C#CCOC(=O)c1ccc(O)c(O)c1 [Propargyl 3,4-Dihydroxybenzoate]
- number of colonies per milliliter, 48 hr ([1]; 0.5% preservative in emulsion): < 10 cfu/ml
- number of colonies per milliliter, 7 days ([1]; 0.5% preservative in emulsion): < 10 cfu/ml
- number of colonies per milliliter, 14 days ([1]; 0.5% preservative in emulsion): < 10 cfu/ml
- number of colonies per milliliter, 21 days ([1]; 0.5% preservative in emulsion): < 10 cfu/ml
- number of colonies per milliliter, 28 days ([1]; 0.5% preservative in emulsion): < 10 cfu/ml
- number of colonies per milliliter, 48 hr ([2]; 0.5% preservative in emulsion): < 10 cfu/ml
- number of colonies per milliliter, 7 days ([2]; 0.5% preservative in emulsion): < 10 cfu/ml
- number of colonies per milliliter, 14 days ([2]; 0.5% preservative in emulsion): < 10 cfu/ml
- number of colonies per milliliter, 21 days ([2]; 0.5% preservative in emulsion): < 10 cfu/ml
- number of colonies per milliliter, 28 days ([2]; 0.5% preservative in emulsion): < 10 cfu/ml
- number of colonies per milliliter, 48 hr ([3]; 0.5% preservative in emulsion): < 10 cfu/ml
- number of colonies per milliliter, 7 days ([3]; 0.5% preservative in emulsion): < 10 cfu/ml
- number of colonies per milliliter, 14 days ([3]; 0.5% preservative in emulsion): < 10 cfu/ml
- number of colonies per milliliter, 21 days ([3]; 0.5% preservative in emulsion): < 10 cfu/ml
- number of colonies per milliliter, 28 days ([3]; 0.5% preservative in emulsion): < 10 cfu/ml
- number of colonies per milliliter, 48 hr ([4]; 0.5% preservative in emulsion): < 10 cfu/ml
- number of colonies per milliliter, 7 days ([4]; 0.5% preservative in emulsion): < 10 cfu/ml
- number of colonies per milliliter, 14 days ([4]; 0.5% preservative in emulsion): < 10 cfu/ml
- number of colonies per milliliter, 21 days ([4]; 0.5% preservative in emulsion): < 10 cfu/ml
- number of colonies per milliliter, 28 days ([4]; 0.5% preservative in emulsion): < 10 cfu/ml
- number of colonies per milliliter, 48 hr ([5]; 0.5% preservative in emulsion): < 10 cfu/ml
- number of colonies per milliliter, 7 days ([5]; 0.5% preservative in emulsion): < 10 cfu/ml
- number of colonies per milliliter, 14 days ([5]; 0.5% preservative in emulsion): < 10 cfu/ml
- number of colonies per milliliter, 21 days ([5]; 0.5% preservative in emulsion): < 10 cfu/ml
- number of colonies per milliliter, 28 days ([5]; 0.5% preservative in emulsion): < 10 cfu/ml
- number of colonies per milliliter, 48 hr ([6]; 0.5% preservative in emulsion): < 10 cfu/ml
- number of colonies per milliliter, 7 days ([6]; 0.5% preservative in emulsion): < 10 cfu/ml
- number of colonies per milliliter, 14 days ([6]; 0.5% preservative in emulsion): < 10 cfu/ml
- number of colonies per milliliter, 21 days ([6]; 0.5% preservative in emulsion): < 10 cfu/ml
- number of colonies per milliliter, 28 days ([6]; 0.5% preservative in emulsion): < 10 cfu/ml

Structure (SMILES): C#CCOC(=O)c1ccc(O)c(Cl)c1 [Propargyl 3-Chloro-4-Hydroxybenzoate]
- number of colonies per milliliter, 48 hr ([1]; 0.5% preservative in emulsion): 10000 cfu/ml
- number of colonies per milliliter, 7 days ([1]; 0.5% preservative in emulsion): < 10 cfu/ml
- number of colonies per milliliter, 14 days ([1]; 0.5% preservative in emulsion): < 10 cfu/ml
- number of colonies per milliliter, 21 days ([1]; 0.5% preservative in emulsion): < 10 cfu/ml
- number of colonies per milliliter, 28 days ([1]; 0.5% preservative in emulsion): < 10 cfu/ml
- number of colonies per milliliter, 48 hr ([2]; 0.5% preservative in emulsion): < 10 cfu/ml
- number of colonies per milliliter, 7 days ([2]; 0.5% preservative in emulsion): < 10 cfu/ml
- number of colonies per milliliter, 14 days ([2]; 0.5% preservative in emulsion): 80 cfu/ml
- number of colonies per milliliter, 21 days ([2]; 0.5% preservative in emulsion): < 10 cfu/ml
- number of colonies per milliliter, 28 days ([2]; 0.5% preservative in emulsion): < 10 cfu/ml
- number of colonies per milliliter, 48 hr ([3]; 0.5% preservative in emulsion): 9600 cfu/ml
- number of colonies per milliliter, 7 days ([3]; 0.5% preservative in emulsion): < 10 cfu/ml
- number of colonies per milliliter, 14 days ([3]; 0.5% preservative in emulsion): < 10 cfu/ml
- number of colonies per milliliter, 21 days ([3]; 0.5% preservative in emulsion): < 10 cfu/ml
- number of colonies per milliliter, 28 days ([3]; 0.5% preservative in emulsion): < 10 cfu/ml
- number of colonies per milliliter, 48 hr ([4]; 0.5% preservative in emulsion): 280000 cfu/ml
- number of colonies per milliliter, 7 days ([4]; 0.5% preservative in emulsion): 370 cfu/ml
- number of colonies per milliliter, 14 days ([4]; 0.5% preservative in emulsion): < 10 cfu/ml
- number of colonies per milliliter, 21 days ([4]; 0.5% preservative in emulsion): < 10 cfu/ml
- number of colonies per milliliter, 28 days ([4]; 0.5% preservative in emulsion): < 10 cfu/ml
- number of colonies per milliliter, 48 hr ([5]; 0.5% preservative in emulsion): 30 cfu/ml
- number of colonies per milliliter, 7 days ([5]; 0.5% preservative in emulsion): < 10 cfu/ml
- number of colonies per milliliter, 14 days ([5]; 0.5% preservative in emulsion): < 10 cfu/ml
- number of colonies per milliliter, 21 days ([5]; 0.5% preservative in emulsion): < 10 cfu/ml
- number of colonies per milliliter, 28 days ([5]; 0.5% preservative in emulsion): < 10 cfu/ml
- number of colonies per milliliter, 48 hr ([6]; 0.5% preservative in emulsion): > 10^6 cfu/ml
- number of colonies per milliliter, 7 days ([6]; 0.5% preservative in emulsion): < 10^6 cfu/ml
- number of colonies per milliliter, 14 days ([6]; 0.5% preservative in emulsion): < 10^6 cfu/ml
- number of colonies per milliliter, 21 days ([6]; 0.5% preservative in emulsion): < 10^6 cfu/ml
- number of colonies per milliliter, 28 days ([6]; 0.5% preservative in emulsion): < 10^6 cfu/ml

Structure (SMILES): CCCCCCCOC(=O)c1ccc(O)cc1 [heptyl p-hydroxybenzoate]
- solubility in beer [7]: limited solubility in beer so that the beer becomes turbid at about 0 °C
